From patent publication US8455442B2, “Peptides having binding affinity to an antibody which recognizes an epitope on an α1 loop 2 or β2 loop 1 of an adrenoreceptor” (MDC Max-Delbruck-Centrum fur Molekulare Medizin Berlin-Buch, priority 2008, dated 2013)

Experiments:
α1 adrenergic receptor = experiment: Antagonist block of patient-antibody stimulation of the beating rate of cultured neonatal rat cardiomyocytes; format: cell-based; settings: FIG. 1; prazosin given in addition to ICI 118,551; patient immunoglobulins on rat cardiomyocytes
Excerpt: (§1) Preparation of the immunoglobulin fraction.
(§2) The buffer was changed five times during dialysis.

[1] = system: antibodies from patients with Morbus Alzheimer directed to the α1A Adrenoceptor; experiment: Peptide neutralization of the antibody-mediated increase of the beating rate (neonatal rat cardiomyocyte bioassay); format: cell-based, human; settings: FIG. 6; overlapping peptides of the second extracellular loop of the α1A Adrenoceptor co-incubated with patient immunoglobulins (n=5)
Protocol: as §1, §2
(§3) After the dialysis, the IgG fractions feature a concentration of 10-15 mg/ml, a maximum of 10 μg/ml of which are specific receptor antibodies. 50 μl of this IgG solution are pre-incubated with the peptides with the following concentration of peptides: 5 μl of a buffered solution of 100 μg/ml per 50 μl IgG solution. This mixture is pre-incubated at room temperature for 30 minutes and subsequently filled into the cell culture vials, after the former nutrient solution has been removed by pipet. The amount of the medium is 2 ml. The final concentration therefore is of […] for the IgG and 0.5 μg for the peptides. If the molecular weight of the peptide (10 mer) is set with 1 KD and that of the IgG is set with 150 KD, there is an excess of […].
(§4) For the neutralization experiments, synthetic peptides corresponding to the sequence of the three extracellular loops of the human β2 AR or α1A-AR was added in excess (0.5 μg in 50 μl) to 50 μl of the immunoglobulin fraction. The mixtures were shaken and incubated at room temperature for 1 h. The 100-μl samples were then added to neonatal rat heart muscle cells cultured in 2 ml medium to a final dilution of 1:40. The beating rate was counted for 15 s, about 60 min after the addition of the peptide/immunoglobulin mixture. […]

[2] = system: antibodies from patients with Morbus Alzheimer directed to the β2 Adrenoceptor; experiment: as above; format: cell-based, human; settings: FIG. 3; overlapping epitope peptides of loop 1 of the β2-AR co-incubated with patient immunoglobulins (n=6)
Protocol: as §1, §2, §3, §4

With `COc1cc2nc(N3CCN(C(=O)c4ccco4)CC3)nc(N)c2cc1OC` [prazosin] the “inhibition of cellular activity of contraction” value (α1 adrenergic receptor) was “more effective inhibition”.
“APEDET [peptide embedded in the second extracellular loop of the α1A Adrenoceptor]” was tested, and the “neutralisation of the cellular activity of the immunoglobulins” value [1] was “neutralises”.
In the case of FGNFWCE, the “neutralisation of antibody mediated increase of the beating rate” value [2] is reported as “neutralisation”.
